Test results: patent publication US11999727B2 (Tango Therapeutics, Inc., priority 2020, dated 2024)

How the values were obtained:
[1] = target: T1, PRMT5 (Homo sapiens, UniProt O14744); assay: PRMT5 biochemical IC50 assay with SAM as cofactor; conditions: PRMT5, SAM as cofactor; read-out: SAM IC50
T1 construct: purchased Viva (custom protein)

[2] = target: T1, PRMT5; assay: PRMT5 biochemical IC50 assay with no cofactor; conditions: PRMT5, no cofactor
Source text: Table 1 indicates IC50 values (μM) against PRMT5 for exemplary compounds in the presence of SAM as cofactor, with no cofactor, and with MTA as cofactor, respectively (columns 4-6). […] Ki values can be calculated from the IC50 values as described in the Examples section. As detailed in the Examples section, for the assay performed in the presence of SAM, IC50=Ki×1.5 (Ki=IC50/1.5).

[3] = target: T1, PRMT5; assay: PRMT5 biochemical IC50 assay with MTA as cofactor; conditions: PRMT5, MTA as cofactor; read-out: MTA IC50
[4] = tested on: HAP1 MTAP-intact cell line; assay: SDMA in-cell western assay, HAP1 MTAP-intact; format: cell-based; conditions: Homo sapiens, HAP1, SDMA in-cell western, HAP1 MTAP-intact; read-out: MTAP HAP1 intact IC50
How it was run: (§1)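 Readout: in-cell western detection of SDMA. Cells: HAP1 expressing endogenous MTAP and an MTAP-null HAP1 counterpart. Output: IC50.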

[5] = tested on: HAP1 MTAP-deleted cell line; assay: SDMA in-cell western assay, HAP1 MTAP-deleted; format: cell-based; conditions: for IC50: Homo sapiens, HAP1, SDMA in-cell western, HAP1 MTAP-deleted; for MTAP intact/deleted ratio: SDMA in-cell western
How it was run: as §1

[6] = tested on: HAP1 MTAP-deleted cell line; assay: Viability assay, MTAP-deleted cell line; format: cell-based; conditions: Homo sapiens, read-out: HAP1 MTAP deleted viability
Source text: Table 1 additionally indicates IC50 values in a viability assay for the MTAP-deleted cell line (column 10), indicating the effect of treatment with compound on cell survival.

[7] = read-out: HAP1 MTAP deleted IC50
[8] = IC50 ratio HAP1 MTAP-intact vs HAP1 MTAP-deleted
[9] = HAP1, viability assay, MTAP-deleted cell line
[10] = IC50 ratio HAP1 MTAP-intact / HAP1 MTAP-deleted
[11] = read-out: No Cofactor/ rel IC50
[12] = read-out: HAP 1 MTAP deleted IC50
[13] = HAP1, viability assay, HAP1 MTAP-deleted

T1 sequence (O14744 whole entry): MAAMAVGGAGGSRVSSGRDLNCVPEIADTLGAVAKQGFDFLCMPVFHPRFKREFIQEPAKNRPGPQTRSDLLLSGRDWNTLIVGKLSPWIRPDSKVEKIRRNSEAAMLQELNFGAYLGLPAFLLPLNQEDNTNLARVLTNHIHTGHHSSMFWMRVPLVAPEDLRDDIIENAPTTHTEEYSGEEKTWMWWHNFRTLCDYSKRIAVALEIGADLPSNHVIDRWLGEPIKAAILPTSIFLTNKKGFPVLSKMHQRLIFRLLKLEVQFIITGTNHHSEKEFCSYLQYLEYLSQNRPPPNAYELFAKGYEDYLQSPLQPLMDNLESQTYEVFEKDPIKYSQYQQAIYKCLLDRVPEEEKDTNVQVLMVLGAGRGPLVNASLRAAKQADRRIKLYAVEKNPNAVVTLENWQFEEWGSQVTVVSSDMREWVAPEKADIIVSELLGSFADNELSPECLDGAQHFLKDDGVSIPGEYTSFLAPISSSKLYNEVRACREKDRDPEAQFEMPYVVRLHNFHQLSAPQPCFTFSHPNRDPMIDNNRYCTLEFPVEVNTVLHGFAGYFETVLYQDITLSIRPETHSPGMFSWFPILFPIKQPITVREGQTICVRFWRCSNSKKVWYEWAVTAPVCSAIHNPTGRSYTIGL
T1 sequence (Q9BQA1 whole entry partner): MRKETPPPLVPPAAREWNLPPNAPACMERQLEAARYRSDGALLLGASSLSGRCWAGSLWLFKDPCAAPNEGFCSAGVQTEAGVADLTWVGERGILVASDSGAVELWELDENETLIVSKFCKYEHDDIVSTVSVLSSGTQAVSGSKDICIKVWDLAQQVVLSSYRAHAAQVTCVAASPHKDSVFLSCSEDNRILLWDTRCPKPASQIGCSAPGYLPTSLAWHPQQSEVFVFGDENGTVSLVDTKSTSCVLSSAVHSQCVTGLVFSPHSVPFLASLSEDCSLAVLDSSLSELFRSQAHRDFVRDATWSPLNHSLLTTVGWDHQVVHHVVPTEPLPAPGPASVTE

Structure (SMILES)	IC50 [1] [nM]	IC50 ([2]; read-out: No Cofactor/rel IC50) [nM]	IC50 [3] [nM]	IC50 [4] [nM]	IC50 [5, 7] [nM]	IC50 [2, 11] [nM]	IC50 [5, 12] [nM]	MTAP intact/deleted ratio [5, 8]	IC50 [6, 9] [nM]	MTAP intact/deleted ratio [5, 10]	IC50 ([6]; HAP1, viability, HAP1 MTAP-deleted cell line) [nM]	IC50 ([6]; HAP1, viability IC50, MTAP-deleted cell line) [nM]	IC50 [6, 13] [nM]
Cc1cc([C@@H]2CC[C@@H](C)CN2C(=O)C(=O)Nc2cncc(C(N)=O)c2)ccn1 (single isomer, unassigned) [Compound 519]	> 500	> 500	> 500	> 1000	> 1000	–	–	–	> 10000	C (an IC50 ratio of less than 3 fold)	–	–	–
Cc1cncc(NC(=O)C(=O)N2C[C@H](C)CCC2c2cccc(F)c2)c1 (single isomer, unassigned) [Compound 93]	50 to 500	–	50 to 500	> 1000	–	> 500	> 1000	–	> 10000	C (an IC50 ratio of less than 3 fold)	–	–	–
Cc1cc(NC(=O)C(=O)N2C[C@@H](C)CC[C@@H]2c2ccc3c(c2)CCCN3)cnc1N (single isomer, unassigned) [Compound 503]	> 500	> 500	> 500	> 1000	> 1000	–	–	–	> 10000	C (an IC50 ratio of less than 3 fold)	–	–	–
CCc1cc(NC(=O)C(=O)N2C[C@H](C)CC[C@H]2c2ccc3[nH]ncc3c2)cnc1N (single isomer, unassigned) [Compound 579]	> 500	> 500	> 500	> 1000	–	–	> 1000	–	–	B (an IC50 ratio greater than or equal to 3 fold but lower than 10 fold)	–	> 10000	–
COc1ncc(NC(=O)C(=O)N2C[C@H](C)C(F)(F)C[C@H]2c2ccc(C)nc2)cc1C(N)=O (single isomer, unassigned) [Compound 936]	> 500	> 500	> 500	> 1000	–	–	> 1000	–	> 10000	C (an IC50 ratio of less than 3 fold)	–	–	–
NC(=O)c1cncc(NC(=O)C(=O)N2CCCCC2C2CCC(F)(F)CC2)c1 (centres unmarked) [Compound 170, 5-[[2-[2-(4,4-difluorocyclohexyl)-1-piperidyl]-2-oxo-acetyl]amino]pyridine-3-carboxamide]	50 to 500	–	50 to 500	> 1000	–	> 500	100 to 1000	–	> 10000	A (an IC50 ratio greater than or equal to 10 fold)	–	–	–
Cc1ccc([C@@H]2CC[C@@H](C)CN2C(=O)C(=O)Nc2cncc(C(N)=O)c2)cc1F (racemic) [Compound 162, rac-5-{2-[(2R,5S)-2-(3-Fluoro-4-methylphenyl)-5-methylpiperidin-1-yl]-2-oxoacetamido}pyridine-3-carboxamide]	50 to 500	–	< 50	> 1000	–	50 to 500	< 100	–	1000 to 10000	A (an IC50 ratio greater than or equal to 10 fold)	–	–	–
Cc1cc(NC(=O)C(=O)N2C[C@H](C)CC[C@H]2c2ccc3nn(C)cc3c2)cnc1N (racemic) [Compound 912]	50 to 500	50 to 500	50 to 500	100 to 1000	–	–	< 100	–	< 1000	A (an IC50 ratio greater than or equal to 10 fold)	–	–	–
CCc1cc(NC(=O)C(=O)N2C[C@@H](C)CC[C@@H]2c2ccc3sc(C45CC(CN(C)C4)C5)nc3c2)cnc1N [Compound 1212, N-(6-amino-5-ethylpyridin-3-yl)-2-((2R,5S)-5-methyl-2-(2-(3-methyl-3-azabicyclo[3.1.1]heptan-1-yl)benzo[d]thiazol-5-yl)piperidin-1-yl)-2-oxoacetamide]	< 50	< 50	< 50	< 100	< 100	–	–	B (an IC50 ratio greater than or equal to 3 fold but lower than 10 fold)	< 1000	–	–	–	–
Cc1cc(NC(=O)C(=O)N2C[C@@H](C)C(F)(F)C[C@@H]2c2ccc(F)cc2)cnc1N (single isomer, unassigned) [Compound 786]	50 to 500	< 50	< 50	100 to 1000	< 100	–	–	–	–	A (an IC50 ratio greater than or equal to 10 fold)	–	–	< 1000
Cc1cc(NC(=O)C(=O)N2CC[C@@H](C(=O)C(C)C)C[C@H]2c2ccc3c(c2)CCC(=O)N3)cnc1N (racemic) [Compound 853, N-(6-amino-5-methyl-3-pyridyl)-2-[(2S,4R)-4-(2-methylpropanoyl)-2-(2-oxo-3,4-dihydro-1H-quinolin-6-yl)-1-piperidyl]-2-oxo-acetamide]	50 to 500	50 to 500	50 to 500	> 1000	100 to 1000	–	–	–	–	A (an IC50 ratio greater than or equal to 10 fold)	–	–	1000 to 10000
NC(=O)c1cncc(NC(=O)C(=O)N2CCCCC2C2CCCC2)c1 (centres unmarked) [Compound 240, 5-(2-(2-cyclopentylpiperidin-1-yl)-2-oxoacetamido)nicotinamide]	50 to 500	50 to 500	< 50	> 1000	100 to 1000	–	–	–	> 10000	A (an IC50 ratio greater than or equal to 10 fold)	–	–	–

Further lines, with some results ahead:

IC50 [1] [nM]	IC50 ([2]; read-out: No Cofactor/rel IC50) [nM]	IC50 [3] [nM]	IC50 [4] [nM]	IC50 [5, 7] [nM]	IC50 [2, 11] [nM]	IC50 [5, 12] [nM]	Structure (SMILES)	MTAP intact/deleted ratio [5, 8]	IC50 [6, 9] [nM]	MTAP intact/deleted ratio [5, 10]	IC50 ([6]; HAP1, viability, HAP1 MTAP-deleted cell line) [nM]	IC50 ([6]; HAP1, viability IC50, MTAP-deleted cell line) [nM]	IC50 [6, 13] [nM]
< 50	< 50	< 50	100 to 1000	< 100	–	–	COc1ncc(NC(=O)C(=O)N2C[C@@H](C)CC[C@@H]2c2ccc3nn(C4CCN(C)CC4)cc3c2)cc1C(N)=O (racemic) [Compound 1115, 2-Methoxy-5-[[2-oxo-2-[rac-(2R,5S)-5-methyl-2-[2-(1-methyl-4-piperidyl)indazol-5-yl]-1-piperidyl]acetyl]amino]pyridine-3-carboxamide]	A (an IC50 ratio greater than or equal to 10 fold)	< 1000	–	–	–	–
> 500	–	> 500	> 1000	–	> 500	> 1000	CO[C@@H]1C[C@@H](c2ccc3scnc3c2)N(C(=O)C(=O)Nc2cnc(N)c(C3CC3)c2)C[C@@H]1C (single isomer, unassigned) [Compound 1241]	–	–	–	1000 to 10000	–	–
50 to 500	50 to 500	< 50	< 100	< 100	–	–	Cc1cc(NC(=O)C(=O)N2C[C@H](C)CC[C@H]2c2ccc3scc(CCN(C)C)c3c2)cnc1N (racemic) [Compound 1142, N-(6-amino-5-methyl-3-pyridyl)-2-[(2S,5R)-2-[3-[2-(dimethylamino)ethyl]benzothiophen-5-yl]-5-methyl-1-piperidyl]-2-oxo-acetamide]	B (an IC50 ratio greater than or equal to 3 fold but lower than 10 fold)	< 1000	–	–	–	–
> 500	> 500	> 500	> 1000	–	–	> 1000	COc1ncc(NC(=O)C(=O)N2C[C@@H](C)CC[C@@H]2c2cscn2)cc1C(N)=O (single isomer, unassigned) [Compound 1033]	–	> 10000	B (an IC50 ratio greater than or equal to 3 fold but lower than 10 fold)	–	–	–
< 50	< 50	< 50	< 100	< 100	–	–	CCc1cc(NC(=O)C(=O)N2C[C@@H](C)CC[C@@H]2c2ccc3sc([C@@H]4C[C@H]5CN(C)C[C@H]54)nc3c2)cnc1N [Compound 1147, N-(6-amino-5-ethylpyridin-3-yl)-2-((5S)-5-methyl-2-(2-(3-methyl-3-azabicyclo[3.2.0]heptan-6-yl)benzo[d]thiazol-5-yl)piperidin-1-yl)-2-oxoacetamide]	A (an IC50 ratio greater than or equal to 10 fold)	< 1000	–	–	–	–
50 to 500	< 50	< 50	< 100	< 100	–	–	CCc1cc(NC(=O)C(=O)N2C[C@@H](C)CC[C@@H]2c2ccc3sc(C[C@@H](C)N(C)C)nc3c2)cnc1N [Compound 1198, N-(6-amino-5-ethylpyridin-3-yl)-2-((2R,5S)-2-(2-((R)-2-(dimethylamino)propyl)benzo[d]thiazol-5-yl)-5-methylpiperidin-1-yl)-2-oxoacetamide]	A (an IC50 ratio greater than or equal to 10 fold)	< 1000	–	–	–	–
